Measured values taken from publication PMC4396695, “Structure of the Ribosomal Oxygenase OGFOD1 Provides Insights into the Regio- and Stereoselectivity of Prolyl Hydroxylases” (Structure(London, England:1993), 2015).

Legend:
Tpa1p [1] = target: T1, Tpa1p (Saccharomyces cerevisiae, UniProt P40032); assay: X-ray crystal structure, […] Å; format: binding
T1 construct: gene TPA1; full-length (644 aa), N-terminal hexa-histidine tag

OGFOD1 [2] = target: T2, OGFOD1 (Homo sapiens, UniProt Q8N543); assay: X-ray crystal structure, […] Å (also enzyme inhibition, Figure 6A); format: binding; set-up: full-length (542 aa), N-terminal hexa-histidine tag
T2 sequence (Q8N543 1-542): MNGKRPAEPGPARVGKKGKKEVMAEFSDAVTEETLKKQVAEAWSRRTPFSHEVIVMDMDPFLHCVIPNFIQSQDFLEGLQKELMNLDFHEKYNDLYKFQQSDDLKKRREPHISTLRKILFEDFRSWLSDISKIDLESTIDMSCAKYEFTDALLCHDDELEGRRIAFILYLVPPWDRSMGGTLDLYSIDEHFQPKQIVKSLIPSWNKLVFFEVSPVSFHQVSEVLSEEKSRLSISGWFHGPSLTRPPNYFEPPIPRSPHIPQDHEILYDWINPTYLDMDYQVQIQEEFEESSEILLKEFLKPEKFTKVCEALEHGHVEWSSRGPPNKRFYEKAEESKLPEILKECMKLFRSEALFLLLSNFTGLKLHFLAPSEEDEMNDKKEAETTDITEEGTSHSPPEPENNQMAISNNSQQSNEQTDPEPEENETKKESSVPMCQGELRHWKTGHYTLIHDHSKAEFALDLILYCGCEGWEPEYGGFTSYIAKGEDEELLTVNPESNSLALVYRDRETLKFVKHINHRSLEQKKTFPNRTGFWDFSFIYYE

Tpa1p [3] = target: T1, Tpa1p; assay: X-ray crystal structure, […] Å; format: binding; remark: listed apart in the source
OGFOD1 [4] = target: T2, OGFOD1; assay: hydroxylation of uS12 […]-70 peptide by MALDI-TOF MS; format: biochemical; set-up: 542 aa, N-terminal hexa-histidine tag

T1 sequence (P40032 whole entry): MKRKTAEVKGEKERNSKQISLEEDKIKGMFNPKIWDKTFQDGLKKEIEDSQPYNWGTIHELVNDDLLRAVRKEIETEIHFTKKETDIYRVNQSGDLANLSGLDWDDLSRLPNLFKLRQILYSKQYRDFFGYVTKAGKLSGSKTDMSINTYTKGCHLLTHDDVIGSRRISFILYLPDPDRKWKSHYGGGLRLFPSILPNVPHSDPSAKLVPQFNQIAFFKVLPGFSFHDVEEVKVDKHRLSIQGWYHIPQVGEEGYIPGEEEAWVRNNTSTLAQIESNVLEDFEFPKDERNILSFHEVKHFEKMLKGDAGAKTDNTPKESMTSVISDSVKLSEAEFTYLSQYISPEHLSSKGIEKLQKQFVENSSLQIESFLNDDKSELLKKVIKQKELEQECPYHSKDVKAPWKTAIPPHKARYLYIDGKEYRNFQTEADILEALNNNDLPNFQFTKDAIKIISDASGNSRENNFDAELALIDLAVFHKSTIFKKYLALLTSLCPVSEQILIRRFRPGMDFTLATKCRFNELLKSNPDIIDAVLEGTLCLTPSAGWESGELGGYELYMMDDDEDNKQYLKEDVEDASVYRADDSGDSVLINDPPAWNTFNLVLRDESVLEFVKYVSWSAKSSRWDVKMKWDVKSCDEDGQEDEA

| SMILES | X-ray crystal structure, 2.8 Å (Tpa1p [1]) | X-ray crystal structure, 2.1 Å (also enzyme inhibition, Figure 6A) (OGFOD1 [2]) | X-ray crystal structure, 1.9 Å (Tpa1p [3]) | IC50 (OGFOD1 [4]) |
| --- | --- | --- | --- | --- |
| O=C(O)CNC(=O)C(=O)O [N-oxalylglycine] | OGFOD1 and Tpa1p bind NOG similarly. | With OGFOD1 the C-5 carboxylate of NOG is positioned to form hydrogen bonds to the side chains of Tyr169 and Arg230 |  |  |
| O=C(O)CNC(=O)c1nc(Cl)c2ccccc2c1O [IOX3, 1-chloro-4-hydroxyisoquinoline-3-carbonylglycine] |  |  | In Tpa1p, IOX3 binds similarly to NOG with its glycyl side chain carboxylate positioned to form a salt bridge | 520 ± 80 nM |
